Laboratory results: patent US20010051628A1, “METHODS TO MODULATE THE RESISTANCE OF CELLS TO APOPTOSIS MEDIATED BY MUTANT EPIDERMAL GROWTH FACTOR RECEPTORS” (priority 1998, published 2001)

Legend:
[1] = test system: nitric oxide synthase (NOS); conditions: C6 glial cells; cited from earlier work
[2] = test system: malignant glioma cell lines; conditions: cited from earlier work
U-87 glioma xenografts = conditions: continuous intraperitoneal infusion; cited from earlier work
[3] = test system: human glioblastoma spheroids; conditions: cited from earlier work
[4] = test system: human glioblastoma cell lines; conditions: read-out: IC20 for monolayer growth inhibition; cited from earlier work
EGFR = conditions: monolayers at the IC20 doses; cited from earlier work
tumors = conditions: EGF plus cisplatin versus cisplatin alone; cited from earlier work
[5] = test system: human glioma cell lines A172, U563 or U251; conditions: cited from earlier work
protein kinase C (PKC) = conditions: cited from earlier work
glioma cell = conditions: cited from earlier work; for serum-driven cell growth: dose-dependent
caspase-3-like protease = experiment: Inhibition of caspase activity by pre-incubating cell lysates with inhibitor; format: biochemical, human; conditions: 10 μM, lysates pre-incubated at 37° C. for 30 min
Experimental: (§1) (A) Total cell lysates were prepared 2 days after treatment with 5 μg/ml CDDP. Samples were assayed for protease activity using the peptide substrate, Ac-DEVD-pNA. […] Cells were also treated with the plasma membrane-soluble caspase inhibitor Z-Asp-CH2DCB (200 μM) prior to and during CDDP treatment. □, U87MG; ▪, U87MG.ΔEGFR;_, U87MG.DK;_, U87MG.wtEGFR. […] (B) Proteolytic cleavage of PARP after CDDP treatment. For each sample, 20 μg total clarified protein lysate was loaded on to SDS-PAGE gels, electrophoresed, transferred to membranes and probed with anti-PARP monoclonal antibodies. FL, full-length; CF, cleaved fragment.
Cells were lysed in lysis buffer (ApoAlert, Clontech, Palo Alto, Calif.) for 15 min on ice, followed by centrifugation. Protease assays included 89 μl of reaction buffer (100 mM HEPES, pH 7.5, 20% v/v glycerol, 6 mM dithiothreitol, and 0.5 mM EDTA), I μl of 10 mM acetyl-Asp-Glu-Val-Asp-p-nitroanilide (Ac-DEVD-pNA) in DMSO (California Peptide Research, Inc., Napa, Calif.), and 10 μl of equal protein cell lysate. Samples were incubated at 37° C., and enzyme-catalyzed release of p-nitroanilide (pNA) was monitored at […] for 1 h in a microtiter plate reader (Molecular Devices Inc., Sunnyvale, Calif.). […] Values for picomoles of pNA released were calculated from those observed in OD405 values using a standard curve of pNA. […]

glioma = conditions: pre-treatment with LTC4; cited from earlier work
U87MG.ΔEGFR cells [6] = experiment: Cell survival (colony forming efficiency) assay; format: cell-based, human; conditions: drug 1 hr, then 10 to 12 days in fresh medium; colony count
Experimental: Western blot analysis of expression (lower) and auto-phosphorylation (upper) of wt EGFR (♦) and ΔEGFR (●) in U87MG, U87MG.ΔEGFR, U87MG.DK and U87MG.wtEGFR cells grown in media containing 10% serum. Low and similar levels of endogenous wt EGFR expression was also detected in U87MG, U87MG.ΔEGFR and U87MG.DK at longer exposures (data not shown). […] Cells were plated in triplicate 60-mm dishes and treated with media containing various concentrations of CDDP for 1 hr, followed by incubation with fresh media for 10 to 12 days. Numbers of colonies were counted after Giemsa staining. Results were reproduced in four independent experiments; bars, SID.
To determine the level of resistance of the cells to chemotherapeutic agents, colony forming efficiency assays were performed as described (20). Briefly, 400 or 700 cells were seeded in triplicate into dishes having a 60-mm diameter. On the next day cells were treated with various concentrations of CDDP for 1 hr or Taxol or vincristine for 2 hr, and then further incubated for 10 to 12 days in the fresh medium. The cells were fixed in methanol, stained with Giemsa solution (Sigma) and the number of colonies containing greater than 50 cells were counted. The survival fraction was calculated as the ratio of the colony-forming efficiency of drug-treated and untreated cells. […]

U87MG.ΔEGFR cells [7] = experiment: In situ TUNEL labeling of apoptotic DNA fragmentation; format: cell-based, human
Experimental: Cells were seeded on cover slips, treated with 5 μg/ml of CDDP for 2 days, and then TUNEL assays were performed. The percent of TUNEL-positive cells induced by CDDP treatment was assessed by counting more than 400 cells per coverslip. □, U87MG; ▪, U87MG.ΔEGFR;_, U87MG.DK;_, U87MG.wtEGFR.
For each sample, 20 μg of lysate was used. […] For control, the vehicle (DMSO) was used. Apoptosis rate determined by TUNEL assays of triplicate cover slips.
Apoptotic cells were detected by use of terminal deoxynucleotidyl transferase mediated nick end labeling (TUNEL) of apoptotic DNA strand breaks as described (16). Apoptotic index was calculated as a ratio of apoptotic cell number to total tumor cell number within the areas by counting more than 400 cells in each coverslip.

caspase-3-like proteases = experiment: Caspase activity assay in lysates of treated cells (Ac-DEVD-pNA substrate); format: cell-based, human; conditions: for caspase-3-like protease activity relative to basal activity: 48 hours after CDDP 5 μg/ml; for CDDP-induced caspase activation on co-treatment with tyrphostin: data not shown
Experimental: as §1
Cells were lysed in lysis buffer (ApoAlert, Clontech, Palo Alto, Calif.) for 15 min on ice, followed by centrifugation. Protease assays included 89 μl of reaction buffer (100 mM HEPES, pH 7.5, 20% v/v glycerol, 6 mM dithiothreitol, and 0.5 mM EDTA), I μl of 10 mM acetyl-Asp-Glu-Val-Asp-p-nitroanilide (Ac-DEVD-pNA) in DMSO (California Peptide Research, Inc., Napa, Calif.), and 10 μl of equal protein cell lysate. Samples were incubated at 37° C., and enzyme-catalyzed release of p-nitroanilide (pNA) was monitored at […] for 1 h in a microtiter plate reader (Molecular Devices Inc., Sunnyvale, Calif.). Aliquots of cell lysates diluted into the reaction buffer were first incubated with 10 μM caspase-3-like protease inhibitor, Ac-Asp-Glu-Val-Asp-aldehyde (Ac-DEVD-CHO) (Bachem, Torrance, Calif.), at 37° C. for 30 min. Values for picomoles of pNA released were calculated from those observed in OD405 values using a standard curve of pNA. One unit of protease activity was defined as the amount of enzyme required to release 1 pmol pNA/min at 37° C. For in vivo caspase inhibition studies, cells were cultured in the presence of peptide caspase inhibitor Z-Asp-CH2-DCB (Bachem).

Bcl-XL = experiment: Western blot of Bcl-XL expression; format: cell-based, human
Experimental: Total cell lysates were prepared at the various time points indicated. For each sample, 20 μg of lysate protein was used. Results were reproduced in three independent experiments. […] For each sample, 20 μg of lysate was used. […] For control, the vehicle (DMSO) was used. Apoptosis rate determined by TUNEL assays of triplicate cover slips. […] Cell lysates were prepared in RIPA buffer (16), equal protein per sample was separated on SDS-polyacrylamide gels, and transferred to nitrocellulose membranes (BioRad, Hercules, Calif.). Proteins on the membranes were probed with antibodies to Bcl-XL (Transduction, Lexington, Ky.), poly(ADP-ribose) polymerase (PARP) (C2-10; […]

PARP = experiment: Western blot of proteolytic cleavage of PARP; format: cell-based, human
Experimental: as §1
Cell lysates were prepared in RIPA buffer (16), equal protein per sample was separated on SDS-polyacrylamide gels, and transferred to nitrocellulose membranes (BioRad, Hercules, Calif.). Proteins on the membranes were probed with antibodies to Bcl-XL (Transduction, Lexington, Ky.), poly(ADP-ribose) polymerase (PARP) (C2-10; Enzyme System Products, Dublin, Calif.), EGFR (C13) (15), or phosphotyrosine (4G10, Upstate Biotechnology, Lake Placid, N.Y.), and detected by chemiluminescence (Amersham).

CO[C@H]1[C@@H](OC)C[C@H](C)[C@@H](OC)C2=CC(=O)C=C(NC(=O)/C(C)=C/C=C\[C@H](OC)[C@@H](OC(N)=O)/C(C)=C/[C@@H]1C)C2=O [herbimycin A]
NOS induced by LPS and IFN-gamma [1]: suppressed

CN[C@@H]1C[C@H]2O[C@@](C)([C@@H]1OC)n1c3ccccc3c3c4c(c5c6ccccc6n2c5c31)C(=O)N[C@H]4O [UCN-01, seven-hydroxystaurosporine]
combination with 1,3-bis(2-chloroethyl)-1-nitrosourea, inhibition of glioma cell proliferation [2]: additive effects
combination with cisplatin, inhibition of glioma cell proliferation [2]: synergistic effects
activity against U-87 glioma xenografts (U-87 glioma xenografts): significant activity

N#CC(C#N)=Cc1cc(O)c(O)c(O)c1 [tyrphostin A25]
invasion ([3]; tyrphostin A25 at 3 μmol/L, third cell line): reduced invasion
IC20 [4]: 3 µM
EGFR-associated tyrosine phosphorylation (EGFR): no change

EGF: epidermal growth factor administered with cisplatin (NSDSECPLSHDGYCLHDGVCMYIEALDKYACNCVVGYIGERCQYRDLKWWELR; Epidermal growth factor; UniProt P01133 971-1023, looked up)
cisplatin-induced tumor cell kill (final tumor volume) (tumors): significantly enhance

O=c1c(-c2ccc(O)cc2)coc2cc(O)cc(O)c12 [genistein]
infiltration ([3]; genistein at 10 μmol/L): completely inhibited
IC20 [4]: 10 µM
EGFR-associated tyrosine phosphorylation (EGFR): no change
proliferation rate [5]: inhibited
PKC activity (protein kinase C (PKC)): dose dependently reduced
DNA synthesis induced by growth factors (EGF, PDGF; serum for the tyrphostins) (glioma cell): inhibited
cytotoxicity to the cells (glioma cell): cytotoxic

Ac-Asp-Glu-Val-Asp-aldehyde (Ac-DEVD-aldehyde) [Ac-DEVD-CHO]
effect on increased caspase activities of lysates from CDDP-treated cells (caspase-3-like protease): completely abolished

CCCCC/C=C\C\C=C/C=C/C=C/[C@@H](SC[C@H](NC(=O)CC[C@H](N)C(=O)O)C(=O)NCC(=O)O)[C@@H](O)CCCC(=O)O [LTC4]
survival of CDDP-treated animals (glioma): increased survival to a statistically significant degree

[NH2][Pt]([NH2])([Cl])[Cl] [CDDP, cisplatin]
IC50 value (survival) of U87MG.ΔEGFR cells relative to parental U87MG cells (U87MG.ΔEGFR cells [6]): 4.3 fold
proportion of TUNEL-positive cells, U87MG.ΔEGFR lower than U87MG, U87MG.DK or U87MG.wtEGFR (U87MG.ΔEGFR cells [7]; CDDP 5 μg/ml for 2 days, p<0.001): more than 5 fold lower
caspase-3-like protease activity relative to basal activity (caspase-3-like proteases; U87MG parental cells): 5.3 fold
caspase-3-like protease activity relative to basal activity (caspase-3-like proteases; U87MG.DK cells): 4.7 fold
caspase-3-like protease activity relative to basal activity (caspase-3-like proteases; U87MG.wtEGFR cells): 6.4 fold
caspase-3-like protease activity relative to basal activity (caspase-3-like proteases; U87MG.ΔEGFR cells): 2.0 fold
Bcl-XL expression level during CDDP treatment (Bcl-XL; U87MG, U87MG.DK and U87MG.wtEGFR cells, continuous exposure for more than 24 hr): equally decreased
Bcl-XL expression level during CDDP treatment (Bcl-XL; U87MG.ΔEGFR cells): remained unchanged
cleavage of 116-kDa full-length PARP into 85-kDa fragment (PARP; U87MG, U87MG.DK and U87MG.wtEGFR cells, 24 hr after CDDP): observed
cleavage of 116-kDa full-length PARP into 85-kDa fragment (PARP; U87MG.ΔEGFR cells, 48 hr after CDDP): trace levels

O=C(O)C[C@H](NC(=O)OCc1ccccc1)C(=O)COC(=O)c1c(Cl)cccc1Cl [Z-Asp-CH2-DCB]
effect on CDDP-induced apoptosis (U87MG.ΔEGFR cells [7]; cells treated with CDDP in the presence of the inhibitor, data not shown): significant inhibition
caspase-3-like protease activity of cells treated with CDDP in the presence of the inhibitor (caspase-3-like proteases; 200 μM prior to and during CDDP treatment, U87MG and sublines): did not exhibit an increase

COc1cc2ncnc(Nc3cccc(Br)c3)c2cc1OC [AG1517]
CDDP-induced caspase activation on co-treatment with tyrphostin (caspase-3-like proteases; U87MG.ΔEGFR cells): enhanced

COc1cc2ncnc(Nc3cccc(Cl)c3)c2cc1OC [AG1478]
apoptosis induction, tyrphostin in combination with CDDP (U87MG.ΔEGFR cells [7]; U87MG.ΔEGFR cells, CDDP 5 μg/ml for 2 days, concentrations per FIG. 6B): significant apoptosis in a dose-dependent and synergistic manner
CDDP-induced caspase activation on co-treatment with tyrphostin (caspase-3-like proteases; U87MG.ΔEGFR cells): enhanced
Bcl-XL expression (Bcl-XL; U87MG.ΔEGFR cells, 15 μM): marked reduction

N#CC(C#N)=Cc1cc(O)c(O)c(O)c1 [RG 50875]
DNA synthesis induced by growth factors (EGF, PDGF; serum for the tyrphostins) (glioma cell): dose-dependently inhibit
cytotoxicity to the cells (glioma cell): no cytotoxic side effects
selectivity in blocking either EGF or PDGF signaling (glioma cell): no selectivity
serum-driven cell growth (glioma cell): inhibit

COc1ccc(/C=C(\C#N)c2cccnc2)cc1OC [RG 13022]
EGF- and PDGF-induced DNA synthesis (glioma cell; 50 μmol/L): completely blocked
DNA synthesis induced by growth factors (EGF, PDGF; serum for the tyrphostins) (glioma cell): dose-dependently inhibit
cytotoxicity to the cells (glioma cell): no cytotoxic side effects
selectivity in blocking either EGF or PDGF signaling (glioma cell): no selectivity
serum-driven cell growth (glioma cell): inhibit

CO[C@@H]1[C@H](N(C)C(=O)c2ccccc2)C[C@H]2O[C@]1(C)n1c3ccccc3c3c4c(c5c6ccccc6n2c5c31)C(=O)NC4 [CGP 41 251]
proliferation rate [5]: reduced
PKC activity (protein kinase C (PKC)): reduced
